The NIST ThermoML archive (doi:10.1021/je200787v)
Where “and” joins values, the source holds several entries; their conditions need not be identical. Equal entries are not always repeated. ± gives the expanded uncertainty stated by the source.

Assays:
[1] = Liquid
[2] = xn = mol fraction of the nth substance listed; conditions: Liquid; for viscosity: Falling or rolling sphere viscometry; for mass density: Vibrating tube method

SMILES: CCCCCCCCCCCCCCCCCC [octadecane]
- mass density ([1]; 323.1 K): 757 ± 4 kg/m3 [middle of 4 runs]
- mass density ([1]; 323.3 K): 756 ± 4 kg/m3 and 757 ± 4 kg/m3
- mass density ([1]; 372.8 K): 734 ± 5 kg/m3 [middle of 6 runs]
- mass density ([1]; 422.5 K): 703 ± 5 kg/m3 and 704 ± 5 kg/m3
- mass density ([1]; 422.6 K): 700 ± 5 kg/m3 [middle of 6 runs]

SMILES: CCCCCCCCCCCCCCCCCC [octadecane] + CC
- viscosity ([2]; 323.1 K, x2 = 0.27): 1.59 ± 0.16 mPa·s
- viscosity ([2]; 323.1 K, x2 = 0.415): 1.09 ± 0.11 mPa·s
- viscosity ([2]; 323.1 K, x2 = 0.789): 0.31 ± 0.03 mPa·s
- viscosity ([2]; 323.1 K, x2 = 0.844): 0.23 ± 0.02 mPa·s
- mass density ([2]; 323.1 K, x2 = 0.27): 732 ± 2 kg/m3
- mass density ([2]; 323.1 K, x2 = 0.415): 715 ± 2 kg/m3
- mass density ([2]; 323.1 K, x2 = 0.789): 606 ± 2 kg/m3
- mass density ([2]; 323.1 K, x2 = 0.844): 572 ± 2 kg/m3
- viscosity ([2]; 323.3 K, x2 = 0.546): 0.81 ± 0.08 mPa·s
- viscosity ([2]; 323.3 K, x2 = 0.654): 0.55 ± 0.06 mPa·s
- mass density ([2]; 323.3 K, x2 = 0.546): 691 ± 2 kg/m3
- mass density ([2]; 323.3 K, x2 = 0.654): 662 ± 2 kg/m3
- viscosity ([2]; 372.8 K, x2 = 0.127): 0.87 ± 0.09 mPa·s
- viscosity ([2]; 372.8 K, x2 = 0.298): 0.7 ± 0.07 mPa·s
- viscosity ([2]; 372.8 K, x2 = 0.372): 0.62 ± 0.06 mPa·s
- viscosity ([2]; 372.8 K, x2 = 0.474): 0.52 ± 0.05 mPa·s
- viscosity ([2]; 372.8 K, x2 = 0.536): 0.46 ± 0.05 mPa·s
- viscosity ([2]; 372.8 K, x2 = 0.599): 0.39 ± 0.04 mPa·s
- viscosity ([2]; 372.8 K, x2 = 0.666): 0.32 ± 0.03 mPa·s
- viscosity ([2]; 372.8 K, x2 = 0.701): 0.29 ± 0.03 mPa·s
- mass density ([2]; 372.8 K, x2 = 0.127): 719 ± 2 kg/m3
- mass density ([2]; 372.8 K, x2 = 0.298): 703 ± 2 kg/m3
- mass density ([2]; 372.8 K, x2 = 0.372): 692 ± 2 kg/m3
- mass density ([2]; 372.8 K, x2 = 0.474): 676 ± 2 kg/m3
- mass density ([2]; 372.8 K, x2 = 0.536): 664 ± 2 kg/m3
- mass density ([2]; 372.8 K, x2 = 0.599): 648 ± 2 kg/m3
- mass density ([2]; 372.8 K, x2 = 0.666): 628 ± 2 kg/m3
- mass density ([2]; 372.8 K, x2 = 0.701): 614 ± 2 kg/m3
- viscosity ([2]; 422.5 K, x2 = 0.547): 0.29 ± 0.03 mPa·s
- viscosity ([2]; 422.5 K, x2 = 0.588): 0.27 ± 0.03 mPa·s
- mass density ([2]; 422.5 K, x2 = 0.547): 624 ± 2 kg/m3
- mass density ([2]; 422.5 K, x2 = 0.588): 613 ± 2 kg/m3
- viscosity ([2]; 422.6 K, x2 = 0.096): 0.55 ± 0.06 mPa·s
- viscosity ([2]; 422.6 K, x2 = 0.194): 0.49 ± 0.05 mPa·s
- viscosity ([2]; 422.6 K, x2 = 0.296): 0.43 ± 0.04 mPa·s
- viscosity ([2]; 422.6 K, x2 = 0.365): 0.4 ± 0.04 mPa·s
- viscosity ([2]; 422.6 K, x2 = 0.427): 0.37 ± 0.04 mPa·s
- viscosity ([2]; 422.6 K, x2 = 0.477): 0.33 ± 0.03 mPa·s
- mass density ([2]; 422.6 K, x2 = 0.096): 688 ± 2 kg/m3
- mass density ([2]; 422.6 K, x2 = 0.194): 679 ± 2 kg/m3
- mass density ([2]; 422.6 K, x2 = 0.296): 667 ± 2 kg/m3
- mass density ([2]; 422.6 K, x2 = 0.365): 659 ± 2 kg/m3
- mass density ([2]; 422.6 K, x2 = 0.427): 648 ± 2 kg/m3
- mass density ([2]; 422.6 K, x2 = 0.477): 640 ± 2 kg/m3
